According to ChEMBL document CHEMBL1134310, “3-(Arylacetylamino)-N-methylbenzamides: a novel class of selective anti-Helicobacter pylori agents” (2001):
Values after ≈ are worked out from the molar mass of the structure shown.

What was measured:
Format in all cases: functional
[1] = tested on: Helicobacter pylori; test: Minimum inhibitory concentration against Helicobacter pylori.
[2] = tested on: Helicobacter pylori; test: Minimum inhibitory concentration against Helicobacter pylori under acidic conditions at pH 7.0
[3] = tested on: Helicobacter pylori; test: Minimum inhibitory concentration against Helicobacter pylori under acidic conditions at pH 6.0
[4] = tested on: Helicobacter pylori; test: Minimum inhibitory concentration against Helicobacter pylori under acidic conditions at pH 5.0

| MIC [1] | Structure (SMILES) | further results |
| --- | --- | --- |
| 3.12 µg/mL (≈ 9.96 µM) | CNC(=O)c1cccc(NC(=O)Cc2cccc([N+](=O)[O-])c2)c1 |  |
| 0.1 µg/mL (≈ 0.314 µM) | CNC(=O)c1cccc(NC(=O)Cc2cccc3ccccc23)c1 | MIC [2]: 0.125 µg/mL (≈ 0.393 µM); MIC [3]: 0.125 µg/mL (≈ 0.393 µM); MIC [4]: 0.125 µg/mL (≈ 0.393 µM) |
| 0.1 µg/mL (≈ 0.335 µM) | CNC(=O)c1cccc(NC(=O)OCc2ccc(C)cc2)c1 |  |
| 0.2 µg/mL (≈ 0.566 µM) | CNC(=O)c1cccc(NC(=O)OCc2c(Cl)cccc2Cl)c1 |  |
| 0.2 µg/mL (≈ 0.627 µM) | CNC(=O)c1cccc(NC(=O)OCc2ccc(Cl)cc2)c1 |  |
| 0.39 µg/mL (≈ 1.29 µM) | CNC(=O)c1cccc(NC(=O)Cc2cccc(Cl)c2)c1 |  |
| 12.5 µg/mL (≈ 44.3 µM) | CNC(=O)c1cccc(NC(=O)CCc2ccccc2)c1 |  |
| 0.05 µg/mL (≈ 0.157 µM) | CNC(=O)c1cccc(NC(=O)Cc2ccc3ccccc3c2)c1 | MIC [2]: 0.063 µg/mL (≈ 0.198 µM); MIC [3]: 0.063 µg/mL (≈ 0.198 µM); MIC [4]: 0.063 µg/mL (≈ 0.198 µM) |
| 0.1 µg/mL (≈ 0.308 µM) | CNC(=O)c1cccc(NC(=O)Cc2csc3ccccc23)c1 | MIC [2]: 0.25 µg/mL (≈ 0.771 µM); MIC [3]: 0.25 µg/mL (≈ 0.771 µM); MIC [4]: 0.25 µg/mL (≈ 0.771 µM) |
| 12.5 µg/mL (≈ 35.8 µM) | O=C(Cc1cccc(Br)c1)Nc1cccc(C(=O)NO)c1 |  |
| 0.39 µg/mL (≈ 1.38 µM) | CNC(=O)c1cccc(NC(=O)Cc2cccc(C)c2)c1 |  |
| 0.78 µg/mL (≈ 2.5 µM) | CNC(=O)c1cccc(NC(=O)CCc2ccccc2OC)c1 |  |
| 0.78 µg/mL (≈ 2.08 µM) | CNC(=O)c1cccc(NC(=O)Cc2cccc(OCc3ccccc3)c2)c1 |  |
| 0.78 µg/mL (≈ 2.25 µM) | CNC(=O)c1cccc(NC(=O)Cc2ccc(Br)cc2)c1 |  |
| 0.05 µg/mL (≈ 0.15 µM) | CNC(=O)c1cccc(NC(=O)OCc2cccc3ccccc23)c1 |  |
|  | CC1(C)S[C@@H]2[C@H](NC(=O)[C@H](N)c3ccc(O)cc3)C(=O)N2[C@H]1C(=O)O [AMOXICILLIN] | MIC [2]: 0.031 µg/mL (≈ 0.0848 µM); MIC [3]: 0.125 µg/mL (≈ 0.342 µM); MIC [4]: 0.5 µg/mL (≈ 1.37 µM) |
| 0.1 µg/mL (≈ 0.299 µM) | CNC(=O)c1cccc(NC(=O)OCc2ccc3ccccc3c2)c1 |  |
| 3.12 µg/mL (≈ 10.3 µM) | CNC(=O)c1cccc(NC(=O)Cc2ccccc2Cl)c1 |  |
| 0.78 µg/mL (≈ 2.61 µM) | CNC(=O)c1cccc(NC(=O)Cc2cccc(OC)c2)c1 |  |

| MIC [1] | Structure (SMILES) | further results |
| --- | --- | --- |
| 1.56 µg/mL (≈ 5.81 µM) | CNC(=O)c1cccc(NC(=O)Cc2ccccc2)c1 |  |
| 3.12 µg/mL (≈ 11 µM) | CNC(=O)c1cccc(NC(=O)COc2ccccc2)c1 |  |
| 0.1 µg/mL (≈ 0.299 µM) | CNC(=O)c1cccc(NC(=O)COc2cccc3ccccc23)c1 |  |
| 25 µg/mL (≈ 69.2 µM) | CN(C)C(=O)c1cccc(NC(=O)Cc2cccc(Br)c2)c1 |  |
| 12.5 µg/mL (≈ 45.6 µM) | CNC(=O)c1cccc(NC(=O)CC2CCCCC2)c1 |  |
| 0.39 µg/mL (≈ 1.12 µM) | CNC(=O)c1cccc(NC(=O)Cc2cccc(Br)c2)c1 |  |
| > 100 µg/mL | CCOC(=O)c1cccc(NC(=O)Cc2cccc(Br)c2)c1 |  |
| 0.39 µg/mL (≈ 1.1 µM) | CNC(=O)c1cccc(NC(=O)COc2cccc(Cl)c2Cl)c1 |  |
| 12.5 µg/mL (≈ 34.4 µM) | CONC(=O)c1cccc(NC(=O)Cc2cccc(Br)c2)c1 |  |
| 6.25 µg/mL (≈ 22 µM) | CNC(=O)c1cccc(NC(=O)Cc2cccc(O)c2)c1 |  |
| 3.12 µg/mL (≈ 10.9 µM) | CNC(=O)c1cccc(NC(=O)Cc2cccc(F)c2)c1 |  |
| 0.78 µg/mL (≈ 2.54 µM) | CNC(=O)c1cccc(NC(=O)Cc2c[nH]c3ccccc23)c1 |  |
| 3.12 µg/mL (≈ 8.64 µM) | CCNC(=O)c1cccc(NC(=O)Cc2cccc(Br)c2)c1 |  |
| 0.78 µg/mL (≈ 2.58 µM) | CNC(=O)c1cccc(NC(=O)Cc2ccc(Cl)cc2)c1 |  |
| > 100 µg/mL | O=C(Cc1cccc(Br)c1)Nc1cccc(C(=O)O)c1 |  |
| 100 µg/mL (≈ 300 µM) | NC(=O)c1cccc(NC(=O)Cc2cccc(Br)c2)c1 |  |
| 0.78 µg/mL (≈ 2.5 µM) | CNC(=O)c1cccc(NC(=O)Cc2ccc3c(c2)OCO3)c1 |  |
| 0.39 µg/mL (≈ 1.17 µM) | CNC(=O)c1cccc(NC(=O)COc2ccc3ccccc3c2)c1 |  |

| Structure (SMILES) | MIC [1] | further results |
| --- | --- | --- |
| CC[C@H]1OC(=O)[C@H](C)[C@@H](O[C@H]2C[C@@](C)(OC)[C@@H](O)[C@H](C)O2)[C@H](C)[C@@H](O[C@@H]2O[C@H](C)C[C@H](N(C)C)[C@H]2O)[C@](C)(OC)C[C@@H](C)C(=O)[C@H](C)[C@@H](O)[C@]1(C)O [CLARITHROMYCIN] | 0.05 µg/mL (≈ 0.0668 µM) | MIC [2]: 0.063 µg/mL (≈ 0.0842 µM); MIC [3]: 0.5 µg/mL (≈ 0.668 µM); MIC [4]: 2 µg/mL (≈ 2.67 µM) |
